According to US12410171B2, “Tropomyosin receptor kinase (TRK) degradation compounds and methods of use” (Cullgen (Shanghai), Inc., priority 2020, dated 2025):

test system: KM12 cells; assay: KM12 cell viability (CellTiter-Glo); type: cell-based; details: Homo sapiens, 72 h; KM12 cell viability, 11-point 3-fold serial dilution, 3 days, CellTiter-Glo; read-out: IC50
Method: KM12 or H358 cells were treated with 1000 nM CPD-053 following an 8-point 3-fold serial dilution for 3 days.
KM12 cells seeded in 96-well plates were treated with heterobifunctional compounds following a 11-point 3-fold serial dilution for 3 days.
KM12, H358, HEL, SU-DHL-1 and other cells were cultured at 37° C. with 5% CO2 in RPMI 1640 Medium supplemented with 10% fetal bovine serum. Cells were authenticated using the short tandem repeat (STR) assays. Mycoplasma test results were negative. Stable cell lines were established by lentivirus transduction, selected and maintained in medium containing 1 μg/mL puromycin (Beyotime Biotechnology).
Cells were seeded at a density of 5000 cells per well in 96-well assay plates and treated with test compounds following a 12-point 2-fold serial dilution or a 8-point 3-fold dilution, or 11-point 3-fold serial dilution. Three days later, cell viability was determined using the CellTiter-Glo assay kit (Promega) according to the manufacturer's instructions. The dose-response curves were determined and IC50 values were calculated using the GraphPad Prism software following a nonlinear regression (least squares fit) method.

| SMILES | IC50 |
| --- | --- |
| COc1ccc(COc2ccc(Cn3c(N)nc4cc(-c5cnn(CC(=O)NCCOCCOCCNc6cccc7c6C(=O)N(C6CCC(=O)NC6=O)C7=O)c5)cnc43)cc2OC)cc1 (centres unmarked) [CPD-503, 2-(4-(2-amino-3-(3-methoxy-4-((4-methoxybenzyl)oxy)benzyl)-3H-imidazo[4,5-b]pyridin-6-yl)-1H-pyrazol-1-yl)-N-(2-(2-(2-((2-(2,6-dioxopiperidin-3-yl)-1,3-dioxoisoindolin-4-yl)amino)ethoxy)ethoxy)ethyl)acetamide] | 504 nM |
| COc1ccc(COc2ccc(Cn3c(N)nc4cc(-c5cnn(CC(=O)NCCOCCOCCOCCNc6cccc7c6C(=O)N(C6CCC(=O)NC6=O)C7=O)c5)cnc43)cc2OC)cc1 (centres unmarked) [CPD-504, 2-(4-(2-amino-3-(3-methoxy-4-((4-methoxybenzyl)oxy)benzyl)-3H-imidazo[4,5-b]pyridin-6-yl)-1H-pyrazol-1-yl)-N-(2-(2-(2-(2-((2-(2,6-dioxopiperidin-3-yl)-1,3-dioxoisoindolin-4-yl)amino)ethoxy)ethoxy)ethoxy)ethyl)acetamide] | 334 nM |
| COc1ccc(COc2ccc(Cn3c(N)nc4cc(-c5cnn(CC(=O)NCCOCCOCCOCCOCCNc6cccc7c6C(=O)N(C6CCC(=O)NC6=O)C7=O)c5)cnc43)cc2OC)cc1 (centres unmarked) [CPD-505, 2-(4-(2-amino-3-(3-methoxy-4-((4-methoxybenzyl)oxy)benzyl)-3H-imidazo[4,5-b]pyridin-6-yl)-1H-pyrazol-1-yl)-N-(14-((2-(2,6-dioxopiperidin-3-yl)-1,3-dioxoisoindolin-4-yl)amino)-3,6,9,12-tetraoxatetradecyl)acetamide] | 195 nM |
| COc1ccc(COc2ccc(Cn3c(N)nc4cc(-c5cnn(CC(=O)NCCOCCOCCOCCOCCOCCNc6cccc7c6C(=O)N(C6CCC(=O)NC6=O)C7=O)c5)cnc43)cc2OC)cc1 (centres unmarked) [CPD-506, 2-(4-(2-amino-3-(3-methoxy-4-((4-methoxybenzyl)oxy)benzyl)-3H-imidazo[4,5-b]pyridin-6-yl)-1H-pyrazol-1-yl)-N-(17-((2-(2,6-dioxopiperidin-3-yl)-1,3-dioxoisoindolin-4-yl)amino)-3,6,9,12,15-pentaoxaheptadecyl)acetamide] | 204 nM |
| COc1ccc(COc2ccc(Cn3c(N)nc4cc(-c5cnn(CC(=O)NCC(=O)N[C@H](C(=O)N6C[C@H](O)C[C@H]6C(=O)NCc6ccc(-c7scnc7C)cc6)C(C)(C)C)c5)cnc43)cc2OC)cc1 [CPD-507] | 1520 nM |
| COc1ccc(COc2ccc(Cn3c(N)nc4cc(-c5cnn(CC(=O)NCCCC(=O)N[C@H](C(=O)N6C[C@H](O)C[C@H]6C(=O)NCc6ccc(-c7scnc7C)cc6)C(C)(C)C)c5)cnc43)cc2OC)cc1 [CPD-508, (2S,4R)-1-((S)-2-(4-(2-(4-(2-amino-3-(3-methoxy-4-((4-methoxybenzyl)oxy)benzyl)-3H-imidazo[4,5-b]pyridin-6-yl)-1H-pyrazol-1-yl)acetamido)butanamido)-3,3-dimethylbutanoyl)-4-hydroxy-N-(4-(4-methylthiazol-5-yl)benzyl)pyrrolidine-2-carboxamide] | 2100 nM |
| COc1ccc(COc2ccc(Cn3c(N)nc4cc(-c5cnn(CC(=O)NCCCCCC(=O)N[C@H](C(=O)N6C[C@H](O)C[C@H]6C(=O)NCc6ccc(-c7scnc7C)cc6)C(C)(C)C)c5)cnc43)cc2OC)cc1 [CPD-509, (2S,4R)-1-((S)-2-(6-(2-(4-(2-amino-3-(3-methoxy-4-((4-methoxybenzyl)oxy)benzyl)-3H-imidazo[4,5-b]pyridin-6-yl)-1H-pyrazol-1-yl)acetamido)hexanamido)-3,3-dimethylbutanoyl)-4-hydroxy-N-(4-(4-methylthiazol-5-yl)benzyl)pyrrolidine-2-carboxamide] | 53.1 nM |
| COc1ccc(COc2ccc(Cn3c(N)nc4cc(-c5cnn(CC(=O)NCCOCCC(=O)N[C@H](C(=O)N6C[C@H](O)C[C@H]6C(=O)NCc6ccc(-c7scnc7C)cc6)C(C)(C)C)c5)cnc43)cc2OC)cc1 [CPD-512, (2S,4R)-1-((S)-2-(3-(2-(2-(4-(2-amino-3-(3-methoxy-4-((4-methoxybenzyl)oxy)benzyl)-3H-imidazo[4,5-b]pyridin-6-yl)-1H-pyrazol-1-yl)acetamido)ethoxy)propanamido)-3,3-dimethylbutanoyl)-4-hydroxy-N-(4-(4-methylthiazol-5-yl)benzyl)pyrrolidine-2-carboxamide] | 307 nM |
| COc1ccc(COc2ccc(Cn3c(N)nc4cc(-c5cnn(CC(=O)NCCOCCOCCC(=O)N[C@H](C(=O)N6C[C@H](O)C[C@H]6C(=O)NCc6ccc(-c7scnc7C)cc6)C(C)(C)C)c5)cnc43)cc2OC)cc1 [CPD-513, (2S,4R)-1-((S)-1-(4-(2-amino-3-(3-methoxy-4-((4-methoxybenzyl)oxy)benzyl)-3H-imidazo[4,5-b]pyridin-6-yl)-1H-pyrazol-1-yl)-14-(tert-butyl)-2,12-dioxo-6,9-dioxa-3,13-diazapentadecan-15-oyl)-4-hydroxy-N-(4-(4-methylthiazol-5-yl)benzyl)pyrrolidine-2-carboxamide] | 261 nM |
| COc1ccc(COc2ccc(Cn3c(N)nc4cc(-c5cnn(CC(=O)NCCOCCOCCOCCC(=O)N[C@H](C(=O)N6C[C@H](O)C[C@H]6C(=O)NCc6ccc(-c7scnc7C)cc6)C(C)(C)C)c5)cnc43)cc2OC)cc1 [CPD-514, (2S,4R)-1-((S)-1-(4-(2-amino-3-(3-methoxy-4-((4-methoxybenzyl)oxy)benzyl)-3H-imidazo[4,5-b]pyridin-6-yl)-1H-pyrazol-1-yl)-17-(tert-butyl)-2,15-dioxo-6,9,12-trioxa-3,16-diazaoctadecan-18-oyl)-4-hydroxy-N-(4-(4-methylthiazol-5-yl)benzyl)pyrrolidine-2-carboxamide] | 174 nM |
| COc1ccc(COc2ccc(Cn3c(N)nc4cc(-c5cnn(CC(=O)NCCOCCOCCOCCOCCC(=O)N[C@H](C(=O)N6C[C@H](O)C[C@H]6C(=O)NCc6ccc(-c7scnc7C)cc6)C(C)(C)C)c5)cnc43)cc2OC)cc1 [CPD-515, (2S,4R)-1-((S)-1-(4-(2-amino-3-(3-methoxy-4-((4-methoxybenzyl)oxy)benzyl)-3H-imidazo[4,5-b]pyridin-6-yl)-1H-pyrazol-1-yl)-20-(tert-butyl)-2,18-dioxo-6,9,12,15-tetraoxa-3,19-diazahenicosan-21-oyl)-4-hydroxy-N-(4-(4-methylthiazol-5-yl)benzyl)pyrrolidine-2-carboxamide] | 343 nM |
| COc1ccc(COc2ccc(Cn3c(N)nc4cc(-c5cnn(CC(=O)NCCOCCOCCOCCOCCOCCC(=O)N[C@H](C(=O)N6C[C@H](O)C[C@H]6C(=O)NCc6ccc(-c7scnc7C)cc6)C(C)(C)C)c5)cnc43)cc2OC)cc1 [CPD-516, (2S,4R)-1-((S)-1-(4-(2-amino-3-(3-methoxy-4-((4-methoxybenzyl)oxy)benzyl)-3H-imidazo[4,5-b]pyridin-6-yl)-1H-pyrazol-1-yl)-23-(tert-butyl)-2,21-dioxo-6,9,12,15,18-pentaoxa-3,22-diazatetracosan-24-oyl)-4-hydroxy-N-(4-(4-methylthiazol-5-yl)benzyl)pyrrolidine-2-carboxamide] | 473 nM |

same assay, conditions: Homo sapiens, 72 h; KM12 cell viability, CellTiter-Glo, three days treatment; read-out: IC50

| SMILES | IC50 |
| --- | --- |
| O=C1CCC(N2Cc3cc(OCCN4CCN(c5cccc(-c6cnc7ccc(N8CCC[C@@H]8c8cccc(F)c8)nn67)n5)CC4)ccc3C2=O)C(=O)N1 (stereo partly drawn) [TR-200, 3-(5-(2-(4-(6-(6-((R)-2-(3-fluorophenyl)pyrrolidin-1-yl)imidazo[1,2-b]pyridazin-3-yl)pyridin-2-yl)piperazin-1-yl)ethoxy)-1-oxoisoindolin-2-yl)piperidine-2,6-dione] | 101 nM |
| O=C1CCC(N2Cc3ccc(OCCN4CCN(c5cccc(-c6cnc7ccc(N8CCC[C@@H]8c8cccc(F)c8)nn67)n5)CC4)cc3C2=O)C(=O)N1 (stereo partly drawn) [TR-201, 3-(6-(2-(4-(6-(6-((R)-2-(3-fluorophenyl)pyrrolidin-1-yl)imidazo[1,2-b]pyridazin-3-yl)pyridin-2-yl)piperazin-1-yl)ethoxy)-1-oxoisoindolin-2-yl)piperidine-2,6-dione] | > 500 nM |
| O=C1CCC(N2C(=O)c3ccc(N4CC(CN5CCC(n6ccc(-c7cnc8ccc(N9CCC[C@@H]9c9cccc(F)c9)nn78)c6)CC5)C4)cc3C2=O)C(=O)N1 (stereo partly drawn) [TR-222, 2-(2,6-Dioxopiperidin-3-yl)-5-(3-((4-(3-(6-((R)-2-(3-fluorophenyl)pyrrolidin-1-yl)imidazo[1,2-b]pyridazin-3-yl)-1H-pyrrol-1-yl)piperidin-1-yl)methyl)azetidin-1-yl)isoindoline-1,3-dione] | > 500 nM |
| O=C1CCC(N2C(=O)c3ccc(N4CC(CN5CCN(c6cccc(-c7cnc8ccc(N9CCC[C@@H]9c9cccc(F)c9)cn78)n6)CC5)C4)cc3C2=O)C(=O)N1 (stereo partly drawn) [TR-234, 2-(2,6-dioxopiperidin-3-yl)-5-(3-((4-(6-(6-((R)-2-(3-fluorophenyl)pyrrolidin-1-yl)imidazo[1,2-a]pyridin-3-yl)pyridin-2-yl)piperazin-1-yl)methyl)azetidin-1-yl)isoindoline-1,3-dione] | 284 nM |
| O=C1CCC(n2c(=O)n(CCCN3CCN(c4cccc(-c5cnc6ccc(N7CCC[C@@H]7c7cccc(F)c7)cn56)n4)CC3)c3ccccc32)C(=O)N1 (stereo partly drawn) [TR-243, 3-(3-(3-(4-(6-(6-((R)-2-(3-Fluorophenyl)pyrrolidin-1-yl)imidazo[1,2-a]pyridin-3-yl)pyridin-2-yl)piperazin-1-yl)propyl)-2-oxo-2,3-dihydro-1H-benzo[d]imidazol-1-yl)piperidine-2,6-dione] | > 500 nM |
